Assay results as given in paper PMC9758846, “Dinuclear and mononuclear metal(II) polypyridyl complexes against drug-sensitive and drug-resistant Plasmodium falciparum and their mode of action” (Malaria Journal, 2022).
Read-outs that look alike come from different tables or passages of the source.

Legend:
[1] = tested on: Plasmodium falciparum 3D7 (Pf3D7); test: In vitro anti-malarial activity using SYBR Green I nucleic acid dye; assay type: cell-based; conditions: 72 h incubation, read-out: IC50 of Pf3D7
Experimental: (§1) The drug-sensitive strain of P. falciparum 3D7 (Pf3D7) was obtained from the Department of Science, Monash University, Malaysia and cultured as previously described. The artemisinin-resistant strain of P. falciparum IPC5202 (Pf5202) was obtained from BEI Resources and cultured as mentioned in the product sheet. Both strains were maintained in sealed flask at 37 °C in a humidified atmosphere of 5% O2, 5% CO2 and 90% N2. All buffer stock solutions for biological assays were autoclaved at 121 °C for 15 min.
(§2) Previously reported anti-malarial assay was used with slight modification using 1% parasitaemia (ring-stage) and 5% haematocrit treated with test compounds at increasing concentration and incubated for 72 h at 37 °C [21–23]. After the incubation, the assay was terminated by freeze/thaw cycle (− 80 °C overnight before thawing for 2 h) before the addition of lysis buffer containing SYBR Green I dye into each well and mixed thoroughly using the belly dancer for 30 min in the dark. Chloroquine diphosphate salt and artemisinin were used as standard drugs. The fluorescence signal was quantified at 485 nm excitation wavelength and 528 nm emission wavelength. IC50 values of each test compound was determined from a dose response curve by non-linear regression analysis.

[2] = tested on: Plasmodium falciparum IPC5202 (Pf5202); test: as above; assay type: cell-based; conditions: for IC50: 72 h incubation, read-out: IC50 of Pf5202
Experimental: as §1, §2

[3] = PNDA assay of •OH radicals from reaction with H2O2; conditions: for Generation of ·OH radicals (in words): equimolar test compound with excess H2O2; for Concentration of •OH radical: 30 µM compound with excess H2O2
Experimental: A previously reported spectrometric assay using PNDA was used to quantify the amount of reactive oxygen species (ROS), viz. •OH radicals, produced by the reaction of metal(II) complexes with hydrogen peroxide in borate buffer at pH 7.5 [24–26]. The percentage of PNDA bleaching and the concentration of •OH produced were determined.

Pf3D7 = test: Intracellular ROS level using DCFH-DA; assay type: cell-based, Plasmodium falciparum
Experimental: (§3) After incubation, packed cells were washed with phosphate buffer saline (PBS) solution. […] The data was expressed as fold change between amount of ROS produced by treated P. falciparum against untreated P. falciparum. Normalization was done with the percentage of parasite viability obtained at each condition. Hydrogen peroxide was used as positive control.

Pf5202 = test: Intracellular ROS level using DCFH-DA; assay type: cell-based, Plasmodium falciparum
Experimental: as §3

[4] = target: Pf5202 20S proteasome trypsin-like (T-L) site (Plasmodium falciparum, UniProt Q8I6T3); test: 20S proteasome inhibition assay using parasite lysate; assay type: biochemical
Sequence of Pf5202 20S proteasome trypsin-like (T-L) site (Q8I6T3 entry or part of it): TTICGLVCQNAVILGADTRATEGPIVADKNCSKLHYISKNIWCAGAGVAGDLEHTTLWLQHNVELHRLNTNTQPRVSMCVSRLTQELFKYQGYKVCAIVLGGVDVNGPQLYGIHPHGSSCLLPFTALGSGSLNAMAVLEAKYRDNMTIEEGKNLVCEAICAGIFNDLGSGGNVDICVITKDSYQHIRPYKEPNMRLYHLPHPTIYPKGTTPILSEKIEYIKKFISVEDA
Experimental: (§4) To harvest P. falciparum parasites, intraerythrocytic Pf3D7 and Pf5202 were collected in trophozoite and early schizont stages. Red blood cells were lysed in 0.15% (w/v) saponin lysis buffer for 10 min at 37 °C. After lysis, the parasite pellet was washed once with PBS buffer by centrifuging at 1600 rpm for 5 min. Saponin lysis buffer was added once again to remove all the red blood cells for 10 min at 37 °C, followed by washing with PBS twice and immediately used or kept at − 80 °C. To prepare parasite lysates for proteasome purification, parasite pellet was resuspended with 100 µl of pre-cooled Pierce™ RIPA buffer. A mild protein extraction method was used to prepare parasite extracts. The resuspended parasites were passed 20 times through a needle with a diameter of 0.4 mm in a syringe on ice to lyse the parasite. After 15 min centrifugation at 13,000 xg at 4 °C, the supernatant was removed. Protein concentration was determined by the Bradford assay. The activities of 3 proteolytic sites were determined by fluorescence assay using fluorogenic peptide substrates (Suc-LLVY-AMC for chymotrypsin-like, Boc-LRR-AMC for trypsin-like and Suc-LLE-AMC for caspase-like) Proteasome activities were determined by monitoring the substrate hydrolysis for 30 min at 37 °C with 340 nm excitation and 465 nm emission wavelength. Activity of each proteolytic site were calculated, and the IC50 values were determined from the non-linear regression analysis. VR23 proteasome inhibitor was used as positive control.

[5] = target: Pf3D7 20S proteasome caspase-like (C-L) site (Plasmodium falciparum, UniProt Q8I0U7); test: as above; assay type: biochemical; conditions: Suc-LLE-AMC, 30 min
Sequence of Pf3D7 20S proteasome caspase-like (C-L) site (Q8I6T3 entry or part of it): as above
Sequence of Pf3D7 20S proteasome caspase-like (C-L) site (Q8I0U7 entry or part of it): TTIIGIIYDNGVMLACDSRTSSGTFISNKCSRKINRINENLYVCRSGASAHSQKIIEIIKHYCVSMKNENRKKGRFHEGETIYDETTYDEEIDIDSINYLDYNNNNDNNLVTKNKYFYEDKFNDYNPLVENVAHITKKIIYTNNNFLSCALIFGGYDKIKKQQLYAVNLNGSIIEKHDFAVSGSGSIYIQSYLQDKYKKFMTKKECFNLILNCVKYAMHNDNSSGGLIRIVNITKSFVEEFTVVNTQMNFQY
Experimental: as §4

[6] = target: Pf3D7 20S proteasome trypsin-like (T-L) site (Plasmodium falciparum, UniProt Q8I6T3); test: as above; assay type: biochemical; conditions: Boc-LRR-AMC, 30 min
Sequence of Pf3D7 20S proteasome trypsin-like (T-L) site (Q8I6T3 entry or part of it): as the sequence (Q8I6T3 entry or part of it) above
Experimental: as §4

[7] = positive control, 24 h, 1000 µM
[8] = positive control, 48 h, 1000 µM
[9] = positive control, 72 h, 1000 µM

For `C[C@@H]1CC[C@H]2[C@@H](C)C(=O)O[C@@H]3O[C@@]4(C)CC[C@@H]1[C@]32OO4` [ART, Artemisinin], the IC50 ([1]; Plasmodium falciparum, 3D7) was 0.04 ± 0.01 µM, the IC50 ([2]; Plasmodium falciparum) was greater than 100 µM and the “Drop in efficacy/potency towards Pf5202 relative to Pf3D7” value ([2]; ratio of IC50 values) was “more than 3000 ×”.

In the case of `O.O.O.O.O.O.O=[N+]([O-])[O-].O=[N+]([O-])[O-].[Zn+2]` [Zn(NO3)2·6H2O, Zinc(II) nitrate hexahydrate], the “Generation of ·OH radicals (in words)” value [3] is reported as “did not generate any ·OH radicals”, the IC50 [1] is reported as greater than 100 µM and the IC50 [2] is reported as greater than 100 µM.

In the case of `OO` [Complex H2O2, Hydrogen peroxide, reference compound], the “fold change in ROS” value (Pf3D7; positive control, 24 h, 8 µM) is reported as 0.90 ± 0.37 fold, the “fold change in ROS” value (Pf3D7; positive control, 24 h, 40 µM) is reported as 1.34 ± 0.67 fold and the “fold change in ROS” value (Pf3D7; positive control, 24 h, 200 µM) is reported as 1.28 ± 0.62 fold. For the same compound, the “fold change in ROS” value (Pf3D7; [7]) was 1.77 ± 0.85 fold, the “fold change in ROS” value (Pf3D7; positive control, 48 h, 8 µM) was 2.97 ± 0.57 fold and the “fold change in ROS” value (Pf3D7; positive control, 48 h, 40 µM) was 3.55 ± 0.9 fold. For the same compound, the “fold change in ROS” value (Pf3D7; positive control, 48 h, 200 µM) was 4.61 ± 0.15 fold, the “fold change in ROS” value (Pf3D7; [8]) was 5.75 ± 0.76 fold and the “fold change in ROS” value (Pf3D7; positive control, 72 h, 8 µM) was 0.25 ± 0.08 fold. The “fold change in ROS” value (Pf3D7; positive control, 72 h, 40 µM) was 0.34 ± 0.12 fold, the “fold change in ROS” value (Pf3D7; positive control, 72 h, 200 µM) was 0.49 ± 0.22 fold and the “fold change in ROS” value (Pf3D7; [9]) was 1.00 ± 0.06 fold. For the same compound, the “fold change in ROS” value (Pf5202; positive control, 24 h, 8 µM) was 1.10 ± 0.04 fold, the “fold change in ROS” value (Pf5202; positive control, 24 h, 40 µM) was 1.16 ± 0.13 fold and the “fold change in ROS” value (Pf5202; positive control, 24 h, 200 µM) was 1.08 ± 0.18 fold. For the same compound, the “fold change in ROS” value (Pf5202; [7]) was 1.15 ± 0.22 fold, the “fold change in ROS” value (Pf5202; positive control, 48 h, 8 µM) was 1.78 ± 0.16 fold and the “fold change in ROS” value (Pf5202; positive control, 48 h, 40 µM) was 1.54 ± 0.28 fold. The “fold change in ROS” value (Pf5202; positive control, 48 h, 200 µM) was 1.41 ± 0.16 fold, the “fold change in ROS” value (Pf5202; [8]) was 1.68 ± 0.28 fold and the “fold change in ROS” value (Pf5202; positive control, 72 h, 8 µM) was 1.82 ± 0.15 fold. The “fold change in ROS” value (Pf5202; positive control, 72 h, 40 µM) was 1.17 ± 0.36 fold, the “fold change in ROS” value (Pf5202; positive control, 72 h, 200 µM) was 2.06 ± 0.25 fold and the “fold change in ROS” value (Pf5202; [9]) was 3.71 ± 0.14 fold.

For `c1cnc2c(c1)ccc1cccnc12` [phen, 1,10-phenanthroline, reference compound], the IC50 ([4]; parasite lysate, Boc-LRR-AMC, 30 min) was 1.79 ± 0.66 µM, the “Factor by which T-L site of Pf5202 is inhibited better than that of Pf3D7” value ([4]; ratio of T-L IC50 values) was “about 2.5 ×” and the IC50 [5] was greater than 25 µM. The IC50 [6] was 4.47 ± 0.6 µM, the “Concentration of •OH radical” value ([3]; 24 h) was 0.15 ± 0.07 µM and the “Concentration of •OH radical” value ([3]; 48 h) was 0.36 ± 0.17 µM. For the same compound, the “Concentration of •OH radical” value ([3]; 72 h) was 0.30 ± 0.23 µM, the “Generation of ·OH radicals (in words)” value [3] was “did not generate any ·OH radicals” and the “fold change in ROS” value (Pf3D7; 48 h, 0.2 µM) was 3.10 ± 0.98 fold. The “fold change in ROS” value (Pf3D7; 48 h, 1.0 µM) was 2.91 ± 0.05 fold, the “fold change in ROS” value (Pf3D7; 48 h, 5.0 µM) was 4.47 ± 0.71 fold and the “fold change in ROS” value (Pf3D7; 48 h, 25.0 µM) was 6.09 ± 0.91 fold. For the same compound, the “fold change in ROS” value (Pf5202; 24 h, 0.2 µM) was 1.06 ± 0.06 fold, the “fold change in ROS” value (Pf5202; 24 h, 1.0 µM) was 1.08 ± 0.09 fold and the “fold change in ROS” value (Pf5202; 24 h, 5.0 µM) was 0.91 ± 0.05 fold. For the same compound, the “fold change in ROS” value (Pf5202; 24 h, 25.0 µM) was 0.80 ± 0.04 fold, the “fold change in ROS” value (Pf5202; 48 h, 0.2 µM) was 1.78 ± 0.78 fold and the “fold change in ROS” value (Pf5202; 48 h, 1.0 µM) was 1.31 ± 0.21 fold. For the same compound, the “fold change in ROS” value (Pf5202; 48 h, 5.0 µM) was 1.40 ± 0.13 fold, the “fold change in ROS” value (Pf5202; 48 h, 25.0 µM) was 1.32 ± 0.31 fold and the “fold change in ROS” value (Pf5202; 72 h, 0.2 µM) was 1.35 ± 0.71 fold. The “fold change in ROS” value (Pf5202; 72 h, 1.0 µM) was 1.17 ± 0.44 fold, the “fold change in ROS” value (Pf5202; 72 h, 5.0 µM) was 1.08 ± 0.51 fold and the “fold change in ROS” value (Pf5202; 72 h, 25.0 µM) was 1.21 ± 1.25 fold. For the same compound, the IC50 ([1]; Plasmodium falciparum, 3D7) was 4.27 ± 0.05 µM and the IC50 ([2]; Plasmodium falciparum) was greater than 100 µM.

With `c1cc(-c2ccncc2)ccn1` [4,4′-bipy, 4,4′-bipyridine] the “Generation of ·OH radicals (in words)” value [3] was “did not generate any ·OH radicals”, the IC50 ([1]; Plasmodium falciparum, 3D7) was greater than 100 µM and the IC50 ([2]; Plasmodium falciparum) was greater than 100 µM.
